The record followed here is US8541460B2, “PDK-1/Akt signaling inhibitors” (The Ohio State University, priority 2003, dated 2013).

Where two headings read alike, the source gives them in different places.

One experiment has as its target T1, recombinant PDK-1 (Homo sapiens, UniProt O15530).
T1 construct: purchased Upstate (Lake Placid, N.Y.)
T1 sequence (O15530 1-556): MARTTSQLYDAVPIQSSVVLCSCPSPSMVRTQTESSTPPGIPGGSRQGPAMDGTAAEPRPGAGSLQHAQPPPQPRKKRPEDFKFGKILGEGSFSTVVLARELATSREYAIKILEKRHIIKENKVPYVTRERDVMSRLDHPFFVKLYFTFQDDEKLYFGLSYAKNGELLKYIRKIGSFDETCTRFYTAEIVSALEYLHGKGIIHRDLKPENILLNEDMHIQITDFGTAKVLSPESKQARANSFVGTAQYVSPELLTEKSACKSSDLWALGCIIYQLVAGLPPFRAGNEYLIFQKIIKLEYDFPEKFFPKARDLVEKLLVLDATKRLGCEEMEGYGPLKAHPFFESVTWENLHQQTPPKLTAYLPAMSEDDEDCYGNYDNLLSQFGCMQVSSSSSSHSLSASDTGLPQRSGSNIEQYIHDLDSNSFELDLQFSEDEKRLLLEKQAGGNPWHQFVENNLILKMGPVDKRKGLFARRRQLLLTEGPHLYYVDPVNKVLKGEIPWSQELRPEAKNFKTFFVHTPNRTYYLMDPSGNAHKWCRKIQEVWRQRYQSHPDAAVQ
In words: PDK-1 kinase activity (Upstate kit, cell-free). It is filed as biochemical.

A further experiment concerns PC-3 cells. In words: PC-3 cell viability analysis (MTT). It is filed as cell-based, human. On the procedure:
Cell Culture PC-3 (p53−/−) human androgen-nonresponsive prostate cancer cells were purchased from the American […] (Manassas, Va.). Cells were cultured in RPMI 1640 medium (Gibco, Grand Island, N.Y.) supplemented with 10% fetal bovine serum (FBS; Gibco) at 37° C. in a humidified incubator containing 5% CO2.
Cell viability analysis The effect of 4-[5-(4-methylphenyl)-3-(trifluoromethyl)-1H-pyrazol-1-yl]benzenesulfonamide and its derivatives on PC-3 cell viability was assessed by using the MTT {[3-(4,5-dimethylthiazol-2-yl)-2,5-diphenyl-2H-tetrazolium bromide]} assay in six replicates. Cells were grown in 10% FBS-supplemented RPMI 1640 medium in 96-well, flat bottomed plates for 24 h, and were exposed to various concentrations of compounds 1-36 dissolved in DMSO (final concentration≦0.1%) in 1% serum-containing RPMI 1640 medium for different time intervals. Controls received DMSO vehicle at a concentration equal to that in drug-treated cells. The medium was removed, replaced by 200 μl of 0.5 mg/ml of MTT in 10% FBS-containing RPMI-1640 medium, and cells were incubated in the CO2 incubator at 37° C. for 2 h. Supernatants were removed from the wells, and the reduced MTT dye was solubilized in 200 μL/well DMSO. Absorbance at 570 nm was determined on a plate reader.

For a further experiment, the system named is phospho-473Ser Akt. Put plainly: Western blot of Akt and phospho-Akt in PC-3 cells. It is filed as cell-based, human. Conditions: 5 μM and above. The procedure: Immunoblotting. The general procedure for the Western blot analysis of Akt and phospho-Akt is described as follows. Cells were washed in PBS, resuspended in SDS sample buffer sonicated by an ultrasonic sonicator for 5 sec, and boiled for 5 min. After brief centrifugation, equivalent protein concentrations from the soluble fractions were resolved in 10% SDS-polyacrylamide gels on a Minigel apparatus, and transferred to a nitrocellulose membrane using a semi-dry transfer cell. The transblotted membrane was washed three times with TBS containing 0.05% Tween 20 (TBST). After blocking with TBST containing 5% nonfat milk for 60 min., the membrane was incubated with the primary antibody at 1:1,000 dilution in TBST-5% low fat milk at 4° C. for 12 h, and was then washed three times with TBST. The membrane was probed with goat anti-rabbit IgG-HRP conjugates (1:1,000) for 1 h at room temperature, and was washed with TBST three times. The immunoblots were visualized by enhanced chemiluminescence.
(In western blotting, separated proteins are transferred to a membrane and probed.)

A further experiment concerns Akt. Put plainly: Immunoprecipitated Akt kinase assay, drug-treated PC-3 cells (intracellular Akt activation). It is filed as cell-based. The conditions noted are these: Homo sapiens, PC-3 cells treated 2 h, read-out: IC50 for inhibiting intracellular Akt activation. The procedure:
Immunoprecipitated Akt kinase assay Akt immunoprecipitation was carried out according to a modified, published procedure. PC-3 cells were treated with DMSO vehicle or the test agents at the indicated concentrations for 2 h and then lysed at 4° C. for 1 h in buffer A containing 50 mM Tris-HCl, pH 7.5, 1% Triton X-100, 1 mM EDTA, 1 mM EGTA, 50 mM sodium fluoride, 10 mM sodium β-glycerophosphate. 0.1% 2-mercaptoethanol, 0.1 mM phenylmethylsiilfonyl fluoride, and 1 μg/mL each of aprotinin, pepstatin, and leupeptin. Cell lysates were centrifuged at 10,000 g for 5 min, and the supernatant was treated with anti-Akt at 4° C. for 60 min., followed by protein G-agarose beads for additional 60 min. The immunoprecipitate was used to analyze Akt kinase activity by using the Akt/SGK-specific peptide substrate RPRAATF as described above. Values represented the means of two independent determinations.

A further experiment deals with immunoprecipitated Akt. In words: Direct inhibition of immunoprecipitated Akt kinase activity. It is filed as biochemical, human.
The mark [1] stands for this setting: inhibiting recombinant PDK-1 kinase activity, read-out: IC50 PDK-1.
Setting [2] is: inducing apoptotic death in PC-3 cells / PC-3 cell viability, read-out: IC50 PC-3.

Protocol for recombinant PDK-1: PDK-1 kinase activity This in vitro assay was performed using a PDK-1 kinase assay kit (Upstate, Lake Placid, N.Y.) according to the vendor's instructions. This cell-free assay is based on the ability of recombinant PDK-1, in the presence of DMSO vehicle or the test agent, to activate its downstream kinase serum- and glucocorticoid-regulated kinase (SGK.) which, in turn, phosphorylates the Akt/SGK-specific peptide substrate RPRAATF with [γ-^32]-ATP. […] The reported values represent the means of two independent determinations.

As for “4-[5-(4′triflouromethyl[1,1′-biphenyl]-4-yl)-3-(trifluoromethyl)-1H-1-yl]benzenesulfonamide [Compound 51]”, the IC50 on recombinant PDK-1 (setting [1]) turned out to be 18 µM; in the experiment with PC-3 cells (setting [2]), 8 µM.

Regarding “5-(2-Phenanthrenyl)-3-(trifluoromethyl)-4-(1H-tetrazol-5-ylmethylphenyl)-1H-pyrazole [Compound 69]”, the IC50 was 45 µM on recombinant PDK-1 (setting [1]) and 27 µM with PC-3 cells (setting [2]).

Regarding “5-(2-Phenanthrenyl)-3-(trifluoromethyl)-4-(1H-tetrazol-5-ylphenyl)-1H-pyrazole [Compound 64]”, the IC50 was 52 µM on recombinant PDK-1 (setting [1]) and 32 µM with PC-3 cells (setting [2]).

Consider `NS(=O)(=O)c1ccc(-n2nc(C(F)(F)F)cc2-c2ccc3c(ccc4ccccc43)c2)cc1` [Compound 59, 4-[5-(2-phenanthrenyl)-3-(trifluoromethyl)-1H-1-yl]benzenesulfonamide], for which the IC50 with PC-3 cells (Homo sapiens, PC-3, 24 h, 1% FBS-containing RPMI 1640 medium, read-out: dose required to induce 50% PC-3 cell death) came to 5 µM; with PC-3 cells (Homo sapiens, inducing apoptotic death in PC-3 cells / PC-3 cell viability, read-out: IC50 PC-3), 5 µM; in the experiment with Akt, 5 µM. In addition, in the experiment on phospho-473Ser Akt, the “Akt dephosphorylation (Western blot)” value is on record as “significant Akt dephosphorylation”. Besides, in the experiment with immunoprecipitated Akt, the “direct inhibitory effect on immunoprecipitated Akt activity” value is reported as “Neither compound 59 nor other the other compounds displayed a direct inhibitory effect”.

For the compound `O/N=C/c1ccc(-n2nc(C(F)(F)F)cc2-c2ccc3c(ccc4ccccc43)c2)cc1` [Compound 65, 4-5[-(2-Phenanthrenyl)-3-(trifluoromethyl)-1H-pyraxol-1-yl]-benzaldehyde oxime], the IC50 on recombinant PDK-1 was found to be 25 µM.
